Data from US20230124095A1 (AMORPHICAL LTD., priority 2020, published 2023).

Tested on: Cathepsin B
Experiment: Cathepsin B activity in lysate of LNCaP clone FGC cells
Format: cell-based, human
Conditions: 4 passages in supplemented medium

Structure (SMILES): [Ca+2].[Cl-].[Cl-] [CaCl2, calcium chloride]
- reduction of Cathepsin B activity compared to untreated control: 16%
